Values quoted from earlier work, collected in patent US9119805B2, “Therapy and prevention of problem drinking” (THE UNIVERSITY OF SYDNEY, priority 2009, dated 2015).
Starred links: 1 amine or outer side, 2 acyl side, 3 side chain; linkers in the order of their positions; H or OH if unused. Positions of bridges follow the written chain, without caps; N, C: chain ends. Residues, ends and D or L forms follow the SMILES beside them. X1 = O=C(CCC[*:2])[*:1]

How the values were obtained:
oxytocin receptor = oxytocin receptor (Homo sapiens, UniProt P30559); details: compared to native oxytocin; cited from earlier work
dependent drinkers = details: cited from earlier work
[1] = animal tests; cited from earlier work
[2] = compared with exogenously applied oxytocin; cited from earlier work
vasopressin receptor = details: cited from earlier work

Sequence of oxytocin receptor (P30559 whole entry): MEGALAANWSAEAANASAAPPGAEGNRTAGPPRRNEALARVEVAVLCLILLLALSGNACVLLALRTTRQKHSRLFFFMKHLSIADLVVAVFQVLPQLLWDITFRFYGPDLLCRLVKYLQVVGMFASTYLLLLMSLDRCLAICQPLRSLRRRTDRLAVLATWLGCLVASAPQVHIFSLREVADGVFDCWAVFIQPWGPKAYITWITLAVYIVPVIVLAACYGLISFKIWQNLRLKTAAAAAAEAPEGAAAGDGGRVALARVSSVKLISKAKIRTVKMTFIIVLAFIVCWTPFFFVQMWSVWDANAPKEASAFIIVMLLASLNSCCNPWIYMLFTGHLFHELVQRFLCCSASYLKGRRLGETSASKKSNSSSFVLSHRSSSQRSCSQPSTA

## CC[C@H](C)[C@@H]1NC(=O)[C@H](Cc2ccc(OC)cc2)NC(=O)CCCSC[C@@H](C(=O)N2CCC[C@H]2C(=O)N[C@@H](CC(C)C)C(=O)NCC(N)=O)NC(=O)[C@H](CC(N)=O)NC(=O)[C@H](CCC(N)=O)NC1=O [carbetocin, 1-deamino-1-monocarba-[2-O-methyltyrosine]-oxytocin] (Y(Me)IQNCPLG-NH2; linker N-5 via X1)
Oxytocin receptor
  duration of activity: long-lasting activity

## CC(=O)NCCCS(=O)(=O)O [acamprosate]
Dependent drinkers; after 6 months, placebo 23%
  patients continuously abstinent: about 36%

## O=C1CC[C@@]2(O)[C@H]3Cc4ccc(O)c5c4[C@@]2(CCN3CC2CC2)[C@H]1O5 [naltrexone]
Dependent drinkers; oral, during the first 3 months
  reduction of relapse: about 36%

## Cc1cc(C(=O)N2Cc3cnn(C)c3Nc3ccccc32)ccc1CNC(=O)N1CCN(Cc2cc(O)cc(O)c2)CC1 [WAY-267,464]
[1]
  anti-depressant effect: no apparent anti-depressant effect
  centrally-mediated oxytocinergic actions: anxiolytic effects
[2]
  extent of crossing the blood-brain-barrier: significantly greater extent than exogenously applied oxytocin
Vasopressin receptor
  affinity for the vasopressin receptor: negligible affinity

## CC1(C)O[C@@H]2[C@@H](CO[C@@]3(COS(N)(=O)=O)OC(C)(C)O[C@@H]23)O1 [Topiramate]
Dependent drinkers; short-term abstinence
  proportion of subjects with 28 consecutive days of abstinence or non-hazardous/harmful drinking: increased the proportion
